{"source": "paper PMC10076671", "about": "“Spider venom-derived peptide JZTX-14 prevents migration and invasion of breast cancer cells via inhibition of sodium channels” (Frontiers in Pharmacology, 2023)", "key": {"[1]": {"tested_on": "Nav1.5", "conditions": "HEK293 cells heterologously expressing Nav1.5; ref Zhang et al., 2018; cited from earlier work"}, "[2]": {"tested_on": "MDA-MB-231 cells", "assay": "Quantitative real-time PCR validation of migration and invasion-related genes", "assay_type": "cell-based, human", "conditions": "JZTX-14-treated MDA-MB-231 cells"}, "[3]": {"tested_on": "MDA-MB-231 cells", "assay": "Scratch wound assay (cell migration)", "assay_type": "cell-based, human", "conditions": "12.5 μM, DMEM/F12 containing 0.2% BSA", "experimental": "The MDA-MB-231 cells were seeded into a six-well plate at an appropriate density to form a single layer of cells. After 12 h, a sterile 200 μl pipette tip was used to produce a linear scraping wound, which was cultured with DMEM/F12 containing 0.2% BSA and different concentrations of inhibitors. The cells were imaged at 0 h, 24 h and 48 h, after scratch induction. ImageJ software was used to analyze the images and quantify cell migration."}, "[4]": {"tested_on": "MDA-MB-231 cells", "assay": "Western blot analysis of EMT markers", "assay_type": "cell-based, human", "conditions": "compared to controls", "experimental": "Cells treated with different concentrations of JZTX-14 were lysed with RIPA lysis solution and samples were collected. Protein concentrations were determined by BCA assay kit (Biosharp, China) and denatured by adding SDS loading buffer (Bio-Bad, United States) followed by boiling. Equal amounts of total protein lysates were subjected to SDS-PAGE and transferred to PVDF membrane (Merck Millipore, United States), 5% BSA was used for blocking (1 h). Primary antibody (Nav1.5, E-cadherin, GAPDH and Vimentin antibody for Proteintech; N-cadherin for Immunoway) was incubated overnight at 4°C, secondary antibody (Abbkine, China) was incubated for 1 h at room temperature and the membrane was visualized by chemiluminescence."}, "[5]": {"tested_on": "MDA-MB-231 cells", "assay": "Transwell assay (cell migration/invasion)", "assay_type": "cell-based, human", "conditions": "24 h incubation, crystal violet staining", "experimental": "Cell migration assay was performed using 24-well transwell plate (Corning, United States). 5×10^4 cells/well were seeded in the upper chamber in DMEM/F12 medium containing 0.1% BSA, the lower chamber contained DMEM/F12% and […]. After 24 h incubation, the cells on the filter membrane were washed three times with PBS, then fixed with 4% paraformaldehyde for 30 min and stained with 0.1% crystal violet for 20 min. The cells on the filter were observed by microscopy and the number of cells was determined using the quantification software ImageJ."}, "[6]": {"tested_on": "MDA-MB-231 cells", "assay": "CCK-8 cell proliferation assay", "assay_type": "cell-based, human"}, "[7]": {"tested_on": "Nav1.5", "assay_type": "cell-based", "conditions": "50 ms depolarisation to −30 mV, holding potential −100 mV, room temperature (22°C–25°C), mean ± SEM", "experimental": "(§1) Sodium currents in experimental cells were recorded at room temperature (22°C–25°C) using an EPC-10 patch-clamp amplifier (HEKA, Germany) in a whole-cell patch-clamp configuration. Recording pipettes were made from borosilicate glass capillaries (VWR, United States) using a PC-10 puller (Narishige, Japan). The inner solution (mM): KCl 130, NaCl 15, CaCl2 0.37, MgCl2 1 EGTA 1, HEPES 10, pH 7.2, resistance was measured as 1.8 MO. The outer solution was composed of (mM): NaCl 140, KCl 3, MgCl2 1, CaCl2 1, HEPES 10, pH 7.2. To minimize voltage errors, the series resistance compensation was set to 80%. The P/4 protocol was used to subtract the linear capacitance and leakage current. Experimental data were acquired and analyzed using the pulse fit 8.0 program (HEKA, Germany). The needed concentrations of toxin dissolved in external solution were applied to the cell surface by microinjector.\nTo determine the biological activity of synthetic and natural JZTX-14 on Nav1.5, we observed their effects on HEK293T cells heterologously expressing Nav1.5 using a whole-cell voltage-clamp configuration. The current traces were induced by a 50 ms depolarisation potential of −30 mV at a holding potential of −100 mV. Currents were recorded by adding 0.1 μM and 0.5 μM of JZTX-14 to the solution."}, "[8]": {"tested_on": "MDA-MB-231 cells", "assay": "Hoechst 33342/PI double staining assay", "assay_type": "cell-based, human", "conditions": "0, 6, 12.5 μM; 48 h", "experimental": "The cells were seeded in a 6-well plate, and after their adherence to the plate, the medium was changed with a complete medium containing different concentrations of inhibitors. After 48 h of treatment, the cells were washed three times with 4°C cold PBS, and incubated with 5 μl/ml Hoechst 33,342 for 15 min. The cells were washed again three times using PBS and incubated with 5 μl/ml PI for 15 min."}, "[9]": {"target": "T1, MDA-MB-231 sodium channels (Homo sapiens, UniProt Q14524)", "T1 construct": "host or cells: MDA-MB-231", "assay": "Whole-cell patch clamp, sodium currents in MDA-MB-231 cells", "assay_type": "cell-based", "experimental": "as §1\nThe biological activity of synthetic JZTX-14 in MDA-MB-231 cells was recorded using the whole-cell patch-clamp method. MDA-MB-231 sodium channels are sensitive to JZTX-14. […] The inward sodium current was induced by a 50 ms depolarisation potential of −30 mV at a holding potential of −100 mV (Figure 3A). The inhibition by JZTX-14 was concentration-dependent (Figure 3B). […] Next, we determined the effects of JZTX-14 on the current-voltage (I–V) curves of sodium channels resulting from a series of currents induced by a set of depolarising potentials ranging from −100 to +60 mV when cells were held at −100 mV (Figure 3C). […] We also investigated the effect of JZTX-14 on the steady-state inactivation of sodium channels in MDA-MB-231 cells. […] shifted the inactivation curves for sodium channels by approximately 10 mV (Figure 3D)."}}, "note": "“Also recorded” adds a separate entry of the source. Like-named read-outs stand apart in the source and are kept apart here. Where a SMILES comes first, the peptide text is derived from it. Bridges are numbered along the chain shown (N, C = ends).", "data": [{"compound": "CC[C@H](C)[C@H](NC(=O)[C@@H]1CSSC[C@@H]2NC(=O)[C@@H]3CCCN3C(=O)[C@@H]3CCCN3C(=O)[C@H](CCC(N)=O)NC(=O)CNC(=O)[C@@H]3CCCN3C(=O)[C@H](Cc3c[nH]cn3)NC(=O)[C@@H]3CSSC[C@H](NC(=O)[C@H](C)NC(=O)[C@H](CC(C)C)NC(=O)CNC(=O)[C@H](CO)NC(=O)[C@H](CSSC[C@H](NC(=O)CN)C(=O)N[C@@H](CCC(N)=O)C(=O)N[C@@H](CCCCN)C(=O)N[C@@H](Cc4ccccc4)C(=O)N[C@@H](Cc4ccccc4)C(=O)N[C@@H](Cc4c[nH]c5ccccc45)C(=O)N[C@@H]([C@@H](C)O)C(=O)N3)NC2=O)C(=O)N[C@@H]([C@@H](C)O)C(=O)N[C@@H](Cc2c[nH]c3ccccc23)C(=O)N2CCC[C@H]2C(=O)N[C@@H]([C@@H](C)O)C(=O)N[C@@H](CCC(=O)O)C(=O)N[C@@H]([C@@H](C)CC)C(=O)N1)C(=O)N[C@@H](CC(C)C)C(N)=O", "note": "[JZTX-14] (H-GCQKFFWTCHPGQPPCCSGLACTWPTEICIL-NH2; disulfide 2-17, 9-22, 16-29)", "values": [{"measurement": "Inhibition of Nav1.5 function", "setting": "[1]", "value": "effectively inhibits"}, {"measurement": "ANGPTL4 expression (qPCR)", "setting": "[2]", "value": "downregulated"}, {"measurement": "FBXO2 expression (qPCR)", "setting": "[2]", "value": "downregulated"}, {"measurement": "GJB3 expression (qPCR)", "setting": "[2]", "value": "downregulated"}, {"measurement": "HMGN5 expression (qPCR)", "setting": "[2]", "value": "downregulated"}, {"measurement": "IL-24-F expression (qPCR)", "setting": "[2]", "value": "upregulated"}, {"measurement": "PLAC1 expression (qPCR)", "setting": "[2]", "value": "downregulated"}, {"measurement": "S100A4 expression (qPCR)", "setting": "[2]", "value": "downregulated"}, {"measurement": "SERPINB2 expression (qPCR)", "setting": "[2]", "value": "upregulated"}, {"measurement": "Inhibition of migration (scratch assay)", "setting": "[3]; 24 h", "value": 72, "unit": "%"}, {"measurement": "Inhibition of migration (scratch assay)", "setting": "[3]; 48 h", "value": 80, "unit": "%"}, {"measurement": "E-cadherin expression level (western blot)", "setting": "[4]; epithelial marker", "value": "significantly increased"}, {"measurement": "MMP2 expression level (western blot)", "setting": "[4]; matrix metalloproteinase", "value": "decreased"}, {"measurement": "N-cadherin expression level (western blot)", "setting": "[4]; mesenchymal marker", "value": "decreased"}, {"measurement": "Vimentin expression level (western blot)", "setting": "[4]; mesenchymal marker", "value": "decreased"}, {"measurement": "Inhibition of cell invasion (transwell)", "setting": "[5]; 6 μM", "value": 50, "unit": "%"}, {"measurement": "Inhibition of cell invasion (transwell)", "setting": "[5]; 12.5 μM", "value": 75, "unit": "%"}, {"measurement": "Cell survival rate (CCK-8)", "setting": "[6]; 1.5, 3, 6, 12.5, 25, 50, and 100 μM, 24 h, OD 450 nm", "value": "did not affect the survival rate"}, {"measurement": "Cell survival rate (CCK-8)", "setting": "[6]; 25, 50, and 100 μM, 48 h, not statistically different compared to the control group", "value": "slightly reduced the survival rate"}, {"measurement": "Inhibition of Nav1.5 current", "setting": "[7]; 0.1 μM, listed as Synthetic JZTX-14, 0.1 µM", "value": "30.3% ± 2.5%"}, {"measurement": "Inhibition of Nav1.5 current", "setting": "[7]; 0.5 μM, listed as Synthetic JZTX-14, 0.5 µM", "value": "53.4% ± 2.5%"}, {"measurement": "Apoptosis and necrosis (Hoechst 33342/PI staining)", "setting": "[8]", "value": "no apoptosis and necrosis; also recorded: no significant effect on the necrosis"}, {"measurement": "Inhibition of inward sodium currents (in words)", "setting": "[9]; 500 nM and 1 μM, 50 ms depolarisation to −30 mV, holding potential −100 mV", "value": "inhibited the inward sodium currents"}, {"measurement": "Shift of steady-state inactivation curves of sodium channels", "setting": "[9]; 1 μM (Figure 3D), 6 cells per point, direction not given", "value": "approximately 10 mV"}, {"measurement": "Shift of activation thresholds of sodium channels", "setting": "[9]; 1 μM, in the depolarising direction, I–V curves from −100 to +60 mV, holding potential −100 mV", "value": "approximately 10 mV"}, {"measurement": "IC50", "setting": "[9]; Hill equation fit, 50 ms depolarisation to −30 mV, holding potential −100 mV, synthetic JZTX-14, 6 cells per point, read-out: IC50, inhibition of sodium current", "value": 401, "unit": "nM"}]}]}
